Data as given in patent publication US8247211B2, “Glycopeptide antibiotics” (American Cyanamid Company, priority 2001, dated 2012).
Values after ≈ are worked out from the molar mass of the structure shown.

Experiments:
Enterococcus sp. = assay: In vitro antibacterial evaluation: minimum inhibitory concentration (MIC), broth dilution method; assay type: cell-based; conditions: 18 hours at 35° C.
In short: (§1)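 NCCLS M7-A2 broth dilution with Mueller-Hinton II, testing 64-0.06 μg/mL antibiotic against 5×10^5 CFU/mL inocula. Test strains include recent methicillin-, penicillin- or vancomycin-resistant clinical isolates. MIC is the lowest concentration preventing growth.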

Escherichia coli = assay: as above; assay type: cell-based; conditions: 18 hours at 35° C.
In short: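 Susceptibility determined by NCCLS-recommended broth dilution (M7-A2), Muller-Hinton II […]. Concentration span 64-0.06 μg/mL, inoculum 5×10^5 CFU/mL. Isolates include strains resistant to methicillin, penicillin and/or vancomycin.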

Staphylococcus sp. = assay: as above; assay type: cell-based
In short: as §1

Streptococcus sp. = assay: as above; assay type: cell-based; conditions: 18 hours at 35° C.
In short: as §1

[1] = system: Staphylococcus aureus-SMITH (GC 4543); assay: Acute lethal infection in mice (ED50); assay type: in vivo; conditions: female CD-1 mice, intraperitoneal challenge, intravenous dose 30 min. after infection, 7 day survival ratios
In short: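 Bacteria suspended in Trypticase Soy Broth or hog gastric mucin are injected intraperitoneally into female CD-1 mice at a dose killing untreated animals within 24-48 hr. Thirty minutes later, test agent is administered intravenously. Survival at day 7 is scored.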

[2] = assay type: in vivo; conditions: mice, 20 mg/kg intravenously daily for 9 days, serum on day 10
Method: 20-day-old CD-1 mice were divided into a vehicle control group (5 mice) and a treatment group (5 mice). Samples of glycopeptide antibiotics were administered at 20 mg/kg intravenously daily for 9 days. Animals were necropsied on day 10 Sera were analyzed for BUN (blood urea nitrogen), creatinine, AST (aspartic aminotransferase), and ALT (alanine aminotransferase) by routine, standard, automated methods using an Hitachi 747 chemistry analyzer.

[3] = Anatomic pathology (heart and kidney histopathology) in mice; assay type: in vivo, CD-1 mice; conditions: 20 mg/kg intravenously daily for 9 days, microscopic histopathology on day 10
In short: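 Histopathology on H&E-stained, paraffin-embedded sections, subjectively scored (slight, mild, moderate, marked, severe) relative to untreated controls. Dosing: glycopeptide antibiotics 20 mg/kg intravenously once daily ×9 days in 20-day-old CD-1 mice, n=5 per group including vehicle.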

[4] = broth dilution, inoculum 5×10^5 CFU/mL

Compound: N=C1NCC(C(O)C2NC(=O)C(Cc3ccc(OC4OC(CO)C(OC5OC6COC7(OC6C(O)C5O)C5CC6CC(C5)CC7C6)C(O)C4O)cc3)NC(=O)C(Cc3ccccc3)NC(=O)CNC(=O)C(CO)NC(=O)C(C(O)C3CNC(=N)N3C3OC(CO)C(O)C(O)C3O)NC2=O)N1 (centres unmarked) [Example 220]
- MIC Enterococcus avium (GC 4558) (Enterococcus sp.; Enterococcus avium (GC 4558)): 2 µg/mL (≈ 1.41 µM)
- MIC Enterococcus faecalis (ATCC 29212) (Enterococcus sp.; Enterococcus faecalis (ATCC 29212)): 2 µg/mL (≈ 1.41 µM)
- MIC Enterococcus faecalis (GC 2242) (Enterococcus sp.; Enterococcus faecalis (GC 2242)): 1 µg/mL (≈ 0.707 µM)
- MIC Enterococcus faecalis (GC 2691) (Enterococcus sp.; Enterococcus faecalis (GC 2691)): 2 µg/mL (≈ 1.41 µM)
- MIC Enterococcus faecalis (GC 3059) (Enterococcus sp.; Enterococcus faecalis (GC 3059)): 2 µg/mL (≈ 1.41 µM)
- MIC Enterococcus faecalis (GC 4552) (Enterococcus sp.; Enterococcus faecalis (GC 4552)): 2 µg/mL (≈ 1.41 µM)
- MIC Enterococcus faecalis (GC 4553) (Enterococcus sp.; Enterococcus faecalis (GC 4553)): 1 µg/mL (≈ 0.707 µM)
- MIC Enterococcus faecalis (GC 4554) (Enterococcus sp.; Enterococcus faecalis (GC 4554)): 2 µg/mL (≈ 1.41 µM)
- MIC Enterococcus faecalis (GC 6189) (Enterococcus sp.; Enterococcus faecalis (GC 6189)): 1 µg/mL (≈ 0.707 µM)
- MIC Enterococcus faecium (GC 2243) (Enterococcus sp.; Enterococcus faecium (GC 2243)): 1 µg/mL (≈ 0.707 µM)
- MIC Enterococcus faecium (GC 4556) (Enterococcus sp.; Enterococcus faecium (GC 4556)): 1 µg/mL (≈ 0.707 µM)
- MIC Enterococcus faecium (GC 4557) (Enterococcus sp.; Enterococcus faecium (GC 4557)): 1 µg/mL (≈ 0.707 µM)
- MIC Enterococcus avium (GC 4558) (Enterococcus sp.; [4]): 2 µg/mL (≈ 1.41 µM)
- MIC Enterococcus faecalis (ATCC 29212) (Enterococcus sp.; [4]): 2 µg/mL (≈ 1.41 µM)
- MIC Enterococcus faecalis (GC 2242) (Enterococcus sp.; [4]): 1 µg/mL (≈ 0.707 µM)
- MIC Enterococcus faecalis (GC 2691) (Enterococcus sp.; [4]): 2 µg/mL (≈ 1.41 µM)
- MIC Enterococcus faecalis (GC 3059) (Enterococcus sp.; [4]): 2 µg/mL (≈ 1.41 µM)
- MIC Enterococcus faecalis (GC 4552) (Enterococcus sp.; [4]): 2 µg/mL (≈ 1.41 µM)
- MIC Enterococcus faecalis (GC 4553) (Enterococcus sp.; [4]): 1 µg/mL (≈ 0.707 µM)
- MIC Enterococcus faecalis (GC 4554) (Enterococcus sp.; [4]): 2 µg/mL (≈ 1.41 µM)
- MIC Enterococcus faecalis (GC 6189) (Enterococcus sp.; [4]): 1 µg/mL (≈ 0.707 µM)
- MIC Enterococcus faecium (GC 2243) (Enterococcus sp.; [4]): 1 µg/mL (≈ 0.707 µM)
- MIC Enterococcus faecium (GC 4556) (Enterococcus sp.; [4]): 1 µg/mL (≈ 0.707 µM)
- MIC Enterococcus faecium (GC 4557) (Enterococcus sp.; [4]): 1 µg/mL (≈ 0.707 µM)
- MIC Escherichia coli (ATCC 25922) (Escherichia coli; Escherichia coli (ATCC 25922)): 32 µg/mL (≈ 22.6 µM)
- MIC Escherichia coli (GC 4559) (Escherichia coli; Escherichia coli (GC 4559)): 16 µg/mL (≈ 11.3 µM)
- MIC Escherichia coli (GC 4560) (Escherichia coli; Escherichia coli (GC 4560)): 0.5 µg/mL (≈ 0.354 µM)
- MIC Staphylococcus aureus (ATCC 29213) (Staphylococcus sp.; strain ATCC 29213): 0.5 µg/mL (≈ 0.354 µM)
- MIC Staphylococcus aureus (GC 1131) (Staphylococcus sp.; strain GC 1131): 1 µg/mL (≈ 0.707 µM)
- MIC Staphylococcus aureus (GC 3051) (Staphylococcus sp.; strain GC 3051): 1 µg/mL (≈ 0.707 µM)
- MIC Staphylococcus aureus (GC 3053) (Staphylococcus sp.; strain GC 3053): 1 µg/mL (≈ 0.707 µM)
- MIC Staphylococcus aureus (GC 4541) (Staphylococcus sp.; strain GC 4541): 1 µg/mL (≈ 0.707 µM)
- MIC Staphylococcus aureus (GC 4542) (Staphylococcus sp.; strain GC 4542): 0.5 µg/mL (≈ 0.354 µM)
- MIC Staphylococcus aureus-SMITH (GC 4543) (Staphylococcus sp.; strain GC 4543): 1 µg/mL (≈ 0.707 µM)
- MIC Staphylococcus aureus (GC 4544) (Staphylococcus sp.; strain GC 4544): 1 µg/mL (≈ 0.707 µM)
- MIC Staphylococcus aureus (GC 4545) (Staphylococcus sp.; strain GC 4545): 0.5 µg/mL (≈ 0.354 µM)
- MIC Staphylococcus haemolyticus (GC 4546) (Staphylococcus sp.; strain GC 4546): 0.25 µg/mL (≈ 0.177 µM)
- MIC Coagulase Negative Staphylococcus (GC 4547) (Staphylococcus sp.; strain GC 4547): 0.5 µg/mL (≈ 0.354 µM)
- MIC Coagulase Negative Staphylococcus (GC 4548) (Staphylococcus sp.; strain GC 4548): 0.25 µg/mL (≈ 0.177 µM)
- MIC Coagulase Negative Staphylococcus (GC 4549) (Staphylococcus sp.; strain GC 4549): 0.25 µg/mL (≈ 0.177 µM)
- MIC Coagulase Negative Staphylococcus (GC 4551) (Staphylococcus sp.; strain GC 4551): 0.5 µg/mL (≈ 0.354 µM)
- MIC Streptococcus agalactiae (GC 4564) (Streptococcus sp.; Streptococcus agalactiae (GC 4564)): <0.06 µg/mL
- MIC Streptococcus pneumoniae (ATCC 6301) (Streptococcus sp.; Streptococcus pneumoniae (ATCC 6301)): <0.06 µg/mL
- MIC Streptococcus pneumoniae (GC 1894) (Streptococcus sp.; Streptococcus pneumoniae (GC 1894)): <0.06 µg/mL
- MIC Streptococcus pneumoniae (GC 4565) (Streptococcus sp.; Streptococcus pneumoniae (GC 4565)): <0.06 µg/mL
- MIC Streptococcus pyogenes (GC 4563) (Streptococcus sp.; Streptococcus pyogenes (GC 4563)): <0.06 µg/mL
- MIC Streptococcus agalactiae (GC 4564) (Streptococcus sp.; [4]): <0.06 µg/mL
- MIC Streptococcus pneumoniae (ATCC 6301) (Streptococcus sp.; [4]): <0.06 µg/mL
- MIC Streptococcus pneumoniae (GC 1894) (Streptococcus sp.; [4]): <0.06 µg/mL
- MIC Streptococcus pneumoniae (GC 4565) (Streptococcus sp.; [4]): <0.06 µg/mL
- MIC Streptococcus pyogenes (GC 4563) (Streptococcus sp.; [4]): <0.06 µg/mL
- median effective dose (ED50), Staphylococcus aureus-SMITH (GC 4543) [1]: 0.19 mg/kg
- Clinical Chemistry (Day 10) % of Control, BUN [2]: 149%
- Clinical Chemistry (Day 10) % of Control, Creatinine [2]: 121%
- Anatomical Pathology (Day 10), Heart [3]: 0
- Anatomical Pathology (Day 10), Kidney [3]: +++
